Assay results reported in US20190083202A1, “APPARATUS AND METHODS USEFUL FOR REMODELING MAXILLOFACIAL BONE USING LIGHT THERAPY, AN ORTHODONTIC APPLIANCE, AND OPTIONALLY, VITAMIN D ADMINISTRATION” (priority 2017, published 2019).

Assay: Paper example: vitamin D3 supplementation with daily light and fixed orthodontic appliance
Assay type: in vivo, human
Conditions: passive phase; continued vitamin D3 2000 to 12,000 IU orally per day
Experimental: In one example, an adult patient's Vitamin D3 blood-serum level is measured during their routine orthodontic-examination and -records appointment. Laboratory results can indicate that the patient's vitamin D3 serum levels are at 20 ng/ml, which is considered to be deficient and abnormal. In this example, the patient's orthodontic diagnosis is Class I mild crowding with 4 mm of crowding on the upper arch and 4 mm on the lower arch. An orthodontic treatment plan can be formulated to comprise the installation of a fixed orthodontic appliance with some mild expansion of the upper and lower arches.
In this example, the patient self-administers oral oil-based vitamin D3 capsules at an amount of 6000 IU per day for 3 months to increase and normalize their vitamin D3 serum levels. Laboratory serum testing can optionally be performed again after 3 months of vitamin D3 supplementation. The patient can maintains or adjusts their oral dose of vitamin D3 based on their subsequent lab results. It should be understood that there are a number of alternative oral and/or systemic dosing protocols for vitamin D administration that could be followed to achieve similar results. The dosing protocol outlined above is merely one of many approaches.
In this example, orthodontic treatment can start either after the 3 month period or no more than about three months prior. […]

With C=C1CC[C@H](O)C/C1=C/C=C1\CCC[C@]2(C)[C@@H]([C@H](C)CCCC(C)C)CC[C@@H]12 [vitamin D3] as the molecule, how does the “alveolar bone density around the teeth” value read?
The value was “increased”.
